# Measured values taken from patent publication US20260265771A1, “METHODS OF INCREASING THE REGENERATION EFFICIENCY IN PLANTS” (Institute of Genetics and Developmental Biology Chinese …, priority 2022, published 2026).
# “Also recorded” adds a separate entry of the source.
# Test system: SIWIND1 promoter
# Experiment: SIWIND1 promoter activity (pSIWIND1::GUS) in cut hypocotyls
# Type: cell-based, tomato
# Settings: cut hypocotyls on MS medium with or without 1 nM REF1
# Description: (a) Induction of the SIWIND1 promoter activity at the wound sites of hypocotyl explants. Hypocotyl explants of 7-d-old pSIWIND1::GUS plants were cultured on MS medium with or without 1 nM REF1. Representative images of hypocotyls at indicated time after wounding are shown. Bars, 1 mm. […] Hypocotyls of 7-d-old seedlings of the indicated genotypes were cut and hypocotyl explants were cultured on MS medium for 9 h before gene expression analysis. Hypocotyls of undamaged seedlings were harvested as control. Data are mean±SD, n=3 biological repeats. (c and d) REF1-induced callus formation in WT and sIwind1 mutants. Hypocotyl explants were cultured on CIM with or without 1 nM REF1 for 14 d before callus phenotype was scored. Shown are representative callus images (c) and quantification of the callus projection area (d). […] Hypocotyl explants were cultured on CIM for 14 d and then transferred to SIM with or without 1 nM REF1 for 21 d before shoot organogenesis phenotype was scored. […] Hypocotyl explants were cultured on CIM for 14 d before callus phenotype was scored. Shown are representative callus images (g) and quantification of the callus projection area (h). […] Hypocotyl explants were cultured on CIM for 14 d and then transferred to SIM for 21 d before shoot organogenesis phenotype was scored. […] In (h) and (j), statistical significance was determined by a student's t test (***p<0.001, **p<0.01, *p<0.05). […]
sequence,measurement,value
"ATDRRGRPPSRPKVGSGPPPQNN (listed as Solanum lycopersicum) [REF1, 23 amino acid tomato peptide cleaved from precursor PROSIPEP]",SIWIND1 promoter activity / expression,enhanced; also recorded: promoting SIWIND1 expression
